Like-named read-outs stand apart in the source and are kept apart here. Blank lines part the entries; values can stand above or below the molecule they belong to.
Experiments:
[1] = Chemical and physical stability over storage (summary statements)
Source text: “Storage condition” referred to 2-(3,5-dichlorophenyl)-1,3-benzoxazole-6-carboxylic acid and its salt means that all the forms are stored in a close vessel at room temperature, ambient pressure and at relative humidity (RH) degree not more than 80%.

[2] = cited from earlier work
[3] = XRPD pattern after keeping at storage condition in a close vial; assay type: physicochemical; conditions: storage condition (room temperature, RH not more than 80%)
Protocol: (§1) The instruments and methods used to characterize the crystals obtained in the examples are as follows: • X-ray powder diffraction analyses (XRPD) were performed on a Bruker D8 Advance X-ray powder diffractometer at about 25° C. and ambient humidity (e.g. 25-35%), using a Cu Kα tube (40 kV, 40 mA, λ=1.5418 Å) as the X-ray source, equipped with a linear Lynxeye XE-T position sensitive detector set at 250 mm from the sample. A Nickel filter (0.0125 mm thickness) was mounted on the primary beam. Data collection was made in coupled mode, theta-theta configuration over an angular range between at least 3° 2 theta and 40° 2theta and a scan step of 0.02°. Fine powder samples were placed in a flat, thin layer in the 12 mm×0.2 mm cavity of a silicon low background plate fixed on a sample holder fitting an autosampler position. The instrument was previously calibrated by means of NIST SRM 1976b. Data acquisition was performed by means of Bruker Diffraction Measurement Center software; data elaboration was performed by means of Crystal Impact Match! or Bruker Diffrac. EVA software.

[4] = Stability studies: HPLC to measure the chemical purity; assay type: physicochemical
Protocol: (§2) Vials containing 100 mg each of alpha form of present invention are stored at the following conditions, wherein RH is referred to relative humidity: • room Temperature (RT) and 80% RH, open vial • 40° C. and 75% RH, open vial
(§3) The sample were analysed before the storage (initial data), 8 days, 15 days and 4 weeks using X-ray powder diffractogram (XRPD) to evaluate any change in crystalline form and using HPLC to measure the chemical purity.
(§4) 700 mg of tafamidis form 4 of obtained according to present invention are stored at the following conditions, wherein RH is referred to relative humidity: • 40° C. and 75% RH, type A container.
(§5) The samples were analysed before the storage (initial data), after 1 month, 3 months, 6 months using X-ray powder diffractogram (XRPD) to evaluate any change in crystalline form and using HPLC to measure the chemical purity.

[5] = Stability studies: XRPD to evaluate any change in crystalline form; assay type: physicochemical
Protocol: as §1, §2, §3, §4, §5

chemical and physical stability (XRPD pattern, degradation) ([1]; kept at storage condition): chemically and physically stable
change of XRPD pattern ([3]; 8 months): does not change its XRPD pattern
SMILES: O=C(O)c1ccc2nc(-c3cc(Cl)cc(Cl)c3)oc2c1 [form 1, 2-(3,5-dichlorophenyl)-1,3-benzoxazole-6-carboxylic acid]
thermodynamic stability of the form ([2]; room temperature): thermodynamically stable form

chemical and physical stability ([1]; stored for several months at 40° C. and 75% RH): chemically and physically stable
change of XRPD pattern ([3]; 10 months): does not change its XRPD pattern
SMILES: O=C(O)c1ccc2nc(-c3cc(Cl)cc(Cl)c3)oc2c1 [form 4, 2-(3,5-dichlorophenyl)-1,3-benzoxazole-6-carboxylic acid]
transformation into a different crystalline form (XRPD) ([5]; 40° C., 75% RH, type A container, after 6 months): no signs of transformation into a different crystalline form
thermodynamic stability of the form ([2]; high temperature): more stable

The remaining lines, values behind:

SMILES: O=C(O)c1ccc2nc(-c3cc(Cl)cc(Cl)c3)oc2c1 [form I, 2-(3,5-dichlorophenyl)-1,3-benzoxazole-6-carboxylic acid]
solid form conversion upon drying ([2]; vacuum dryer at 100-160° C. (WO 2020/232325, examples 16 to 20)): convert into form 4

SMILES: O=C(O)c1ccc2nc(-c3cc(Cl)cc(Cl)c3)oc2c1 [amorphous, 2-(3,5-dichlorophenyl)-1,3-benzoxazole-6-carboxylic acid]
solid form conversion upon storage ([2]; 1 week at 70° C. and 75% relative humidity): converts into crystalline form 4

SMILES: O=C(O)c1ccc2nc(-c3cc(Cl)cc(Cl)c3)oc2c1 [form alpha, 2-(3,5-dichlorophenyl)-1,3-benzoxazole-6-carboxylic acid]
chemical purity by HPLC versus initial profile ([4]; 40° C., 75% RH, open vial, up to 4 weeks): does not present a significant worsening of the purity
chemical purity by HPLC versus initial profile ([4]; 40° C., 75% RH, type A container, up to 6 months): does not present a significant worsening of the purity
chemical purity by HPLC versus initial profile ([4]; room temperature, 80% RH, open vial, up to 4 weeks): does not present a significant worsening of the purity
chemical and physical stability (polymorphic form, chemical purity) ([1]; storage between 15 to 60° C. for several weeks at different degree of humidity): chemically and physically stable
transformation into a different crystalline form (XRPD) ([5]; 40° C., 75% RH, open vial, after 4 weeks): no signs of transformation
transformation into a different crystalline form (XRPD) ([5]; room temperature, 80% RH, open vial, after 4 weeks): no signs of transformation
